Measured values published in ChEMBL document CHEMBL1153689, “Conversion of the phytoestrogen coumestrol into a selective estrogen receptor modulator (SERM) by attachment of an amine-containing sidechain” (Bioorg Med Chem Lett, 1996).
pEC50: −log10 of the molar value.

Test system: MCF7
Test: Inhibition of MCF-7 cell proliferation
Type: functional, cell-based
Conditions: Homo sapiens

pEC50: 7.40
SMILES: Oc1ccc2c(c1)OC(c1ccc(OCCN3CCCCC3)cc1)c1c-2oc2cc(O)ccc12 (stereo unspecified)
